Assay results from the C3SDB collision cross section collection.
Values joined by “and” are separate entries in the source; they are usually repeats but may differ in a detail not shown here. Equal values may be shown once.

Tests used:
[1] = instrument: DT, stepped-field
[2] = [M+H]+; instrument: TW; Major Mix IMS/Tof Calibration Kit (Waters)

SMILES	collision cross section (N2) [2] [Å²]	also measured
OCC1OC(OC2C(CO)OC(OC3C(CO)OC(OC4C(CO)OC(O)C(O)C4O)C(O)C3O)C(O)C2O)C(O)C(O)C1O (stereo not given) [(Hex)4]	–	collision cross section (N2) ([1]; [M+H-H2O]+): 234.7 Å²; collision cross section (N2) ([1]; [M+K]+): 236.6 Å²; collision cross section (N2) ([1]; [M+Na-H2O]+): 234.8 Å²
OCC1OC(OC2C(CO)OC(OC3C(CO)OC(OC4C(CO)OC(OC5C(CO)OC(OC6C(CO)OC(OC7C(CO)OC(OC8C(CO)OC(O)C(O)C8O)C(O)C7O)C(O)C6O)C(O)C5O)C(O)C4O)C(O)C3O)C(O)C2O)C(O)C(O)C1O (stereo not given) [(Hex)8]	–	collision cross section (N2) ([1]; [M+H-H2O]+): 333.8 Å²; collision cross section (N2) ([1]; [M+Na]+): 320.9 Å² and 338.8 Å²
O=CC(OC1OC(CO)C(OC2OC(CO)C(O)C(O)C2O)C(OC2OC(CO)C(O)C(O)C2O)C1OC1OC(CO)C(O)C(O)C1O)C(OC1OC(CO)C(O)C(O)C1O)C(OC1OC(CO)C(O)C(O)C1O)C(COC1OC(CO)C(O)C(O)C1O)OC1OC(CO)C(O)C(O)C1O (stereo not given) [(Hex)9]	–	collision cross section (N2) ([1]; [M+H-H2O]+): 356.2 Å²; collision cross section (N2) ([1]; [M+Na]+): 340.5 Å² and 351.9 Å²
OCC1OC(OC2C(CO)OC(OC3C(CO)OC(OC4C(CO)OC(OC5C(CO)OC(OC6C(CO)OC(OC7C(CO)OC(OC8C(CO)OC(OC9C(CO)OC(OC%10C(CO)OC(OC%11C(CO)OC(OC%12C(CO)OC(O)C(O)C%12O)C(O)C%11O)C(O)C%10O)C(O)C9O)C(O)C8O)C(O)C7O)C(O)C6O)C(O)C5O)C(O)C4O)C(O)C3O)C(O)C2O)C(O)C(O)C1O (stereo not given) [(Hex)12]	–	collision cross section (N2) ([1]; [M+H-H2O]+): 400.3 Å² and 422.9 Å²; collision cross section (N2) ([1]; [M+Na-H2O]+): 390.6 Å² and 410 Å²
C[C@H](N)C(=O)N[C@@H](Cc1ccccc1)C(=O)N[C@@H](CC(=O)O)C(=O)N[C@@H](CCC(=O)O)C(=O)N[C@@H](CCCCN)C(=O)O [AFDEK]	–	collision cross section (N2) ([1]; [M+H]+): 238.3 Å²
CSCC[C@H](NC(=O)[C@H](C)N)C(=O)NCC(=O)N[C@@H](Cc1ccc(O)cc1)C(=O)N[C@@H](CCCNC(=N)N)C(=O)O [AMGYR]	–	collision cross section (N2) ([1]; [M+H]+): 245 Å²
OC[C@H]1O[C@@H]2O[C@H]3[C@H](O)[C@@H](O)[C@@H](O[C@H]4[C@H](O)[C@@H](O)[C@@H](O[C@H]5[C@H](O)[C@@H](O)[C@@H](O[C@H]6[C@H](O)[C@@H](O)[C@@H](O[C@H]7[C@H](O)[C@@H](O)[C@@H](O[C@H]8[C@H](O)[C@@H](O)[C@@H](O[C@H]1[C@H](O)[C@H]2O)O[C@@H]8CO)O[C@@H]7CO)O[C@@H]6CO)O[C@@H]5CO)O[C@@H]4CO)O[C@@H]3CO [Beta-Cyclodextrin]	–	collision cross section (N2) ([1]; [M+H]+): 301.3 Å² and 319.6 Å²; collision cross section (N2) ([1]; [M+K]+): 320.3 Å²; collision cross section (N2) ([1]; [M+Na]+): 319.7 Å²
CCC(C)[C@H](NC(=O)[C@H](CO)NC(=O)[C@H](C)NC(=O)[C@@H](N)CS)C(=O)N[C@@H](CCC(N)=O)C(=O)N[C@@H](CCCCN)C(=O)O (stereo not given in full) [CASIQK]	–	collision cross section (N2) ([1]; [M+H]+): 252.8 Å²
O=C1Nc2ccc(Cl)cc2C(c2ccccc2)=NC1O (stereo not given) [Oxazepam]	162.3	–
COc1ccc2c3c1O[C@H]1C(=O)CC[C@@]4(O)[C@@H](C2)N(C)CC[C@]314 [Oxycodone]	168.3	–
CCC(=O)NS(=O)(=O)c1ccc(-c2c(-c3ccccc3)noc2C)cc1 [Parecoxib]	189.2	–
N#Cc1ccc2c(c1)N(CCCN1CCC(O)CC1)c1ccccc1S2 [Periciazine]	186.4	–
OCCN1CCN(CCCN2c3ccccc3Sc3ccc(Cl)cc32)CC1 [Perphenazine]	193.2	–
CCOc1ccc(NC(C)=O)cc1 [Phenacetin]	139.4	–
CN1C(C(=O)Nc2ccccn2)=C(O)c2ccccc2S1(=O)=O [Piroxicam]	170.9	–
O=C1CN=C(c2ccccc2)c2cc(Cl)ccc2N1CC1CC1 [Prazepam]	174	–
COc1cc2nc(N3CCN(C(=O)c4ccco4)CC3)nc(N)c2cc1OC [Prazosin]	192.7	–
CN1CCN(CCCN2c3ccccc3Sc3ccc(Cl)cc32)CC1 [Prochlorperazine]	183.7	–
CN(C)CCc1c[nH]c2cccc(OP(=O)(O)O)c12 [Psilocybine]	157.3	–

SMILES	collision cross section (N2) [2] [Å²]	also measured
CCOC(=O)[C@H](CCc1ccccc1)N[C@@H](C)C(=O)N1[C@H](C(=O)O)C[C@@H]2CCC[C@@H]21 [Ramipril]	197	–
Cc1nc2n(c(=O)c1CCN1CCC(c3noc4cc(F)ccc34)CC1)CCCC2 [Risperidone]	205.5	–
CCN(C)C(=O)Oc1cccc([C@H](C)N(C)C)c1 [Rivastigmine]	165	–
OCc1cc([C@@H](O)CNCCCCCCOCCCCc2ccccc2)ccc1O [Salmeterol]	202.9	–
CC(C)NCC(O)c1ccc(NS(C)(=O)=O)cc1 (stereo not given) [Sotalol]	167	–
C[C@]12Cc3cn[nH]c3C[C@@H]1CC[C@@H]1[C@@H]2CC[C@@]2(C)[C@H]1CC[C@]2(C)O [Stanozolol]	188.1	–
O=C1C[C@@H]2OCC=C3CN4CC[C@]56c7ccccc7N1[C@H]5[C@H]2[C@H]3C[C@H]46 [Strychnine]	172	–
Cc1cc(NS(=O)(=O)c2ccc(N)cc2)no1 [Sulfamethoxazole]	151	–
CC1=C(CC(=O)O)c2cc(F)ccc2/C1=C\c1ccc(S(C)=O)cc1 (stereo not given) [Sulindac]	192.6	–
CNS(=O)(=O)Cc1ccc2[nH]cc(CCN(C)C)c2c1 [Sumatriptan]	162.1	–
CC[C@@H](c1cccc(O)c1)[C@@H](C)CN(C)C [Tapentadol]	152.1	–
CN(C/C=C/C#CC(C)(C)C)Cc1cccc2ccccc12 [Terbinafine]	187.2	–
CSc1ccc2c(c1)N(CCC1CCCCN1C)c1ccccc1S2 (stereo not given) [Thioridazine]	184.9	–
Cc1ccsc1C(=CCCN1CCC[C@@H](C(=O)O)C1)c1sccc1C [Tiagabine]	184.5	–
CC(C(=O)O)c1ccc(C(=O)c2ccccc2)s1 (stereo not given) [Tiaprofenic acid]	155.1	–
COc1cc(Cc2cnc(N)nc2N)cc(OC)c1OC [Trimethoprim]	170.8	–
CNCCC=C1c2ccccc2CCc2ccccc21 [Triptyline-M nor]	164.5	–
c1cnc2cc3c(cc2n1)[C@@H]1CNC[C@H]3C1 [Varenicline]	151	–
O=C1Cc2cc(CCN3CCN(c4nsc5ccccc45)CC3)c(Cl)cc2N1 [Ziprasidone]	192.6	–
